The results in this text go back to ChEMBL document CHEMBL5036382 (ACS Med Chem Lett, 2022).

Data set [1] has as its target T1, DNA-directed RNA polymerase I subunit RPA1 (Homo sapiens, UniProt O95602). Briefly: Inhibition of RNA polymerase 1 in human A-375 assessed as RPA194 degradation measured after 3 hrs by Hoechst 33342 staining based assay.
The target in a further data set is T2, Cytochrome P450 1A2 (Homo sapiens, UniProt P05177).
T2 sequence (P05177 whole entry): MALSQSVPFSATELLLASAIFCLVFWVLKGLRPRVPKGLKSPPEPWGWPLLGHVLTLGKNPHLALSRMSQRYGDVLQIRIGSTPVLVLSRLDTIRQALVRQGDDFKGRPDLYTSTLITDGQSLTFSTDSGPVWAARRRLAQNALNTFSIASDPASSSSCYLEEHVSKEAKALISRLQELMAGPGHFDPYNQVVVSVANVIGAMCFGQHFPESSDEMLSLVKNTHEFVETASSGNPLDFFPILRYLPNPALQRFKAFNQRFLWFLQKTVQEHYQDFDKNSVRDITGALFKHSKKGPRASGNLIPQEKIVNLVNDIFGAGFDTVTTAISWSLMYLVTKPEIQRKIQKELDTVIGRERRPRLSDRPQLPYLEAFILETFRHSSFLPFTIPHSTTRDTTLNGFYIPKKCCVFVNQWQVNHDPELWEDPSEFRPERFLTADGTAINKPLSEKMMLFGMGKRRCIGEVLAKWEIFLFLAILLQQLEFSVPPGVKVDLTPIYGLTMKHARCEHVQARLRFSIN
Description: Inhibition of recombinant human hepatic CYP1A2 expressed in baculovirus insect cell expression system in presence of CEC substrate measured by fluorescence plate reader assay.

Data set [2] addresses Voltage-gated inwardly rectifying potassium channel KCNH2 (Homo sapiens, UniProt Q12809). Description: Inhibition on hERG expressed in HEK293 cells by Qpatch method.
Data set [3] deals with A-375. Description: Inhibition of RPA3 in human A-375 cells assessed as downregulation of RPA3 gene at 1 uM incubated for 6 hrs measured by qPCR analysis. The data set is classed as cell-based.
Data set [4] has as its system A-375. Briefly: Inhibition of RPA2 in human A-375 cells assessed as downregulation of RPA2 gene at 1 uM incubated for 6 hrs measured by qPCR analysis. The class given is cell-based.
In data set [5] the test system is A-375. Description: Cytotoxicity against human A-375 cells assessed as reduction in cell viability incubated for 72 hrs by cell titer glo luminescent assay. The conditions noted are these: A-375, 72 h.
Data set [6] in a line: Half life in CD1 mouse at 1 mg/kg, iv. The class given is ADME, organism-based. The conditions noted are these: in vivo.
Data set [7] can be described thus: Cmax in CD1 mouse at 30 mg/kg, po. The class given is ADME, organism-based. The note with it: in vivo. Details: route oral, dose 30 mg/kg.
A short description of data set [8]: Half life in CD1 mouse at 30 mg/kg, ip. The note with it: in vivo.
The nature of data set [9]: AUC (0 to infinity) in CD1 mouse at 30 mg/kg, po. The note with it: in vivo. The data set is classed as ADME, organism-based. Details: route oral, time infinity, dose 30 mg/kg.
The nature of data set [10]: Clearance in CD1 mouse at 1 mg/kg, iv. The class given is ADME, organism-based. The conditions noted are these: in vivo.
A short description of data set [11]: Cmax in CD1 mouse at 30 mg/kg, ip. The conditions noted are these: in vivo.
The nature of data set [12]: Volume of distribution at steady state in CD1 mouse at 1 mg/kg, iv. The data set is classed as ADME, organism-based. The note with it: in vivo, read-out: Vdss.
Data set [13] in a line: AUC (0 to infinity) in CD1 mouse at 30 mg/kg, ip. The conditions noted are these: in vivo.
A short description of data set [14]: Metabolic stability in mouse liver microsomes at 1 uM assessed as intrinsic clearance measured after 45 mins by LC-MS/MS analysis. The data set is classed as ADME, Microsome. The conditions noted are these: read-out: CLH.
Data set [15] can be described thus: Oral bioavailability in CD1 mouse at 30 mg/kg. The class given is ADME, organism-based. The note with it: in vivo.
Data set [16] addresses T1, DNA-directed RNA polymerase I subunit RPA1. Description: Inhibition of RPA1 in human A-375 cells assessed as downregulation of RPA1 gene at 1 uM incubated for 6 hrs measured by qPCR analysis. The class given is cell-based.
Data set [17] is described as follows: AUC (0 to infinity) in CD1 mouse at 1 mg/kg, iv. The class given is ADME, organism-based. Details: time infinity, route intravenous, dose 1 mg/kg. The conditions noted are these: in vivo.

Calls of active or inactive are those of the source. The rule behind the calls is not given here.

Sequence of Voltage-gated inwardly rectifying potassium channel KCNH2 (Q12809 whole entry): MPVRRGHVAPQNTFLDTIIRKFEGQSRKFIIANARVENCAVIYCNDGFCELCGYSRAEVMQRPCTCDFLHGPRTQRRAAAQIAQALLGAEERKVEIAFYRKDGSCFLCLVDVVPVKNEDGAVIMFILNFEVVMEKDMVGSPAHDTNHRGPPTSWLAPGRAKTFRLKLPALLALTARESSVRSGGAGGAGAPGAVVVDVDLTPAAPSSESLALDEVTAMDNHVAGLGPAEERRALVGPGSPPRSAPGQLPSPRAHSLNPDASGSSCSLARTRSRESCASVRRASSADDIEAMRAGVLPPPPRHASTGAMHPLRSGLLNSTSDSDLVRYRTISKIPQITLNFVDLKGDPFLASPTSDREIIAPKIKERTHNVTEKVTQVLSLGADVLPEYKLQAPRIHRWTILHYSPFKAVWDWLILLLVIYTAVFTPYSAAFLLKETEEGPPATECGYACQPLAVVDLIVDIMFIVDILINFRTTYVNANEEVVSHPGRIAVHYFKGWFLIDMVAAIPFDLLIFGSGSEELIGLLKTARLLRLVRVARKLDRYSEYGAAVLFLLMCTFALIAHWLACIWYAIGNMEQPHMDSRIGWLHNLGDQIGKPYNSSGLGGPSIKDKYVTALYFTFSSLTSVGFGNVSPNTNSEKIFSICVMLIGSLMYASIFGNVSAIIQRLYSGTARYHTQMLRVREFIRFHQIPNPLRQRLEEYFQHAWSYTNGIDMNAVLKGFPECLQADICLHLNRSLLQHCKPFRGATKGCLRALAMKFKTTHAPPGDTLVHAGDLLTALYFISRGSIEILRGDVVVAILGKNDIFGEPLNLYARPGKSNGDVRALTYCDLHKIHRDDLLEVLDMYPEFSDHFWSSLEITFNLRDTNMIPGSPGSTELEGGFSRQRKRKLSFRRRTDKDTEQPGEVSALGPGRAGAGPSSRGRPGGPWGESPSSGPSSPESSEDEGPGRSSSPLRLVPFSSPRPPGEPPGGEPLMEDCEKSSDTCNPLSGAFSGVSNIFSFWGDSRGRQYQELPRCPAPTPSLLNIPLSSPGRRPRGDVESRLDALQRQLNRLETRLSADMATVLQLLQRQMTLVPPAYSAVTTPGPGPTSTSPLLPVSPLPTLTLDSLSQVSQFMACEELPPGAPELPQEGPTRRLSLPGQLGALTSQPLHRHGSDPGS
T1 sequence (O95602 whole entry): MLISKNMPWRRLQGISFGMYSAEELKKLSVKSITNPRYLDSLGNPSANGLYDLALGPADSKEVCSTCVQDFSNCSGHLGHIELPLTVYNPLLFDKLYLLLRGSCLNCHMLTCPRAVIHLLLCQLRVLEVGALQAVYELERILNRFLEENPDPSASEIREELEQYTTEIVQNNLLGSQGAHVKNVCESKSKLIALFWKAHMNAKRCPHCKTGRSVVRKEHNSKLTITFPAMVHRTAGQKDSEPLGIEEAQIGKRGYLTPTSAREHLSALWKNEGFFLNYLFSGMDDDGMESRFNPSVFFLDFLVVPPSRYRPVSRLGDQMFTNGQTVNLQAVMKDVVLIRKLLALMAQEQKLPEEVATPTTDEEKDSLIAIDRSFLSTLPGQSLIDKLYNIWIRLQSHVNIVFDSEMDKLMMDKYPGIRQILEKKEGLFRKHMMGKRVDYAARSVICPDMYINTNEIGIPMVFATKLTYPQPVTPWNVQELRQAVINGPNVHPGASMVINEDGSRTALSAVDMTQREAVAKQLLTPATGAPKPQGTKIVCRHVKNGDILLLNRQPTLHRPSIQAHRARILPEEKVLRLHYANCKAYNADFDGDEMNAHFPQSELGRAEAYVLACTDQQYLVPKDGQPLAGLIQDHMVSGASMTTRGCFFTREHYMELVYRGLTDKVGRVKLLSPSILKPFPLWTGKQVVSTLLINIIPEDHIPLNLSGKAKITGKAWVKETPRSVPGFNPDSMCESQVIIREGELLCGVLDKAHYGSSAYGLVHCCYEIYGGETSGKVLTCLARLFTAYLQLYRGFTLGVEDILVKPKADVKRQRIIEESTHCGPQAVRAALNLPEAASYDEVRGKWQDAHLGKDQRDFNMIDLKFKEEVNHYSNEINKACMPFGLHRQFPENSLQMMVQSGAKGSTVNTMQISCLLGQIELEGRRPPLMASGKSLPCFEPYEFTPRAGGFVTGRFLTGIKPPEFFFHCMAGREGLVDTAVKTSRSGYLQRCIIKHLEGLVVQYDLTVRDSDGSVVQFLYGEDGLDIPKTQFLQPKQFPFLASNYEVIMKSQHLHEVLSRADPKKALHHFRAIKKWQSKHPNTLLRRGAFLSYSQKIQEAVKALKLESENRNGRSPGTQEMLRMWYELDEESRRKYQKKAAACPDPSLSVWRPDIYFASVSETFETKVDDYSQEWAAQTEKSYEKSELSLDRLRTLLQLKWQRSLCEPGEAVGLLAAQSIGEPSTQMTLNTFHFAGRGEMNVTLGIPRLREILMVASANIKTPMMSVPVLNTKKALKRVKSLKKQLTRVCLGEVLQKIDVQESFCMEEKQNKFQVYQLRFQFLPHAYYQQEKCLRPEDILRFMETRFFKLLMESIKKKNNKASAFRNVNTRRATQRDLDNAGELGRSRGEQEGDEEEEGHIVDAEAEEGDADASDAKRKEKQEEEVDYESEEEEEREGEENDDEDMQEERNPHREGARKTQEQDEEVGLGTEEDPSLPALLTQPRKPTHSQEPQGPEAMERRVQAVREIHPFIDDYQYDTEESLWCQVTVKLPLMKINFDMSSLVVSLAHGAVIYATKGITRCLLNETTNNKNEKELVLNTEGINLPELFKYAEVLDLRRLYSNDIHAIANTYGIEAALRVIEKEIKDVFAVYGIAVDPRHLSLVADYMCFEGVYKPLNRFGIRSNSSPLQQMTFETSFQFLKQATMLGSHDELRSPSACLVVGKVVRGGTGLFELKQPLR

Turning to `O=C(NCCN1CCCC1)c1cccn2c(=O)c3cc4c(cc3nc12)OCCO4`, the IC50 in data set [1] was 1.04 µM. As for `O=C(NCC1CCCCN1)c1cccn2c(=O)c3cc4ccccc4cc3nc12` (stereo not drawn), the half-inhibitory concentration (IC50) in data set [1] is 0.59 µM. Regarding `CN(C)CCNC(=O)c1cccn2c(=O)c3ccc4ccccc4c3nc12`, the IC50 in data set [1] turned out to be 0.16 µM. For the compound `O=C(NCCO)c1cccn2c(=O)c3ccc4ccccc4c3nc12`, the IC50 is 0.1 µM on Cytochrome P450 1A2, above 10 µM in [2] and 9.5 µM in [1]. On to `O=C(NCC1CCCC(CO)N1)c1cccn2c(=O)c3cc4ccccc4cc3nc12` (stereo not drawn), for which the IC50 in [1] turned out to be 0.65 µM.

Consider `O=C(NCCN1CCCCC1)c1cccn2c(=O)c3ccc4ccccc4c3nc12`, for which the IC50 is above 10 µM on Cytochrome P450 1A2, 3.72 µM in [2] and 0.64 µM in data set [1].

Regarding `O=C(NCCCN1CCCC1)c1cccn2c(=O)c3ccc4ccccc4c3nc12`, the IC50 in data set [1] was above 10 µM.

With `O=C(NCCN1CCCC1)c1cccn2c(=O)c3cc4c(cc3nc12)CCCC4`, the IC50 in data set [1] worked out at 1.39 µM. Consider `O=C(NCCN1CCCC1)c1c(O)ccn2c(=O)c3cc4ccccc4cc3nc12`, for which the half-inhibitory concentration (IC50) in data set [1] stood at 5.5 µM. On to `CN(C)CCNC(=O)c1cccn2c(=O)c3cc4ccccc4cc3nc12`, for which the inhibition entry with A-375 [3] and in the data set on A-375 [4] was “inactive” in each case. As to `CN1CCN(CCNC(=O)c2cccn3c(=O)c4ccc5ccccc5c4nc23)CC1`, the IC50 (at Cytochrome P450 1A2; in [2]; in data set [1]) was above 10 µM each time.

`O=C(NCCN1CCCC1)c1cccn2c(=O)c3c(ccc4cnncc43)nc12`: the IC50 in [1] came to 4.2 µM. Same read-out and setting: then `Cc1cc2nc3c(C(=O)NCCN4CCCC4)cccn3c(=O)c2cc1C`, with 1.16 µM. For the compound `CC(NC(=O)c1cccn2c(=O)c3cc4ccccc4cc3nc12)C1CCCCN1` (stereo not drawn), the IC50 in data set [1] was determined as 0.92 µM. With `CN(C)CCCNC(=O)c1cccn2c(=O)c3ccc4ccccc4c3nc12`, the IC50 in [1] was above 10 µM. Still for that read-out and setting: then `O=C(NCCN1CCCC1)c1cccn2c(=O)c3cc4c(cc3nc12)OC(F)(F)O4`, with 0.42 µM. For `NCCNC(=O)c1cccn2c(=O)c3ccc4ccccc4c3nc12`, the 50% inhibitory concentration (IC50) (on Cytochrome P450 1A2; in data set [2]; in [1]) was above 10 µM throughout. For `CN1CCCC1CNC(=O)c1cccn2c(=O)c3cc4ccccc4cc3nc12` (stereo not drawn), the concentration for half-maximal inhibition (IC50) in data set [1] worked out at 3.94 µM. The same measure, in the same setting: with `O=C(NCCN1CCC(F)CC1)c1cccn2c(=O)c3cc4ccccc4cc3nc12` the figure was 0.78 µM; with `O=C(NCCN1CCC(F)(F)C1)c1cccn2c(=O)c3cc4ccccc4cc3nc12`, above 10 µM. Same read-out and setting: with `CC(C)N1CCCCC1CNC(=O)c1cccn2c(=O)c3cc4ccccc4cc3nc12` (stereo not drawn) the figure was 10 µM. On to `O=C(NC1CNC1)c1cccn2c(=O)c3ccc4ccccc4c3nc12`, for which the half-maximal inhibitory concentration (IC50) on Cytochrome P450 1A2 is 0.2 µM; in data set [2], 3.97 µM; in data set [1], above 10 µM. The matching figures for `O=C(NCCN1CC[C@H](F)C1)c1cccn2c(=O)c3ccc4ccccc4c3nc12`: 4.5 µM, above 10 µM and above 10 µM. In the case of `CCN(CC)CCNC(=O)c1cccn2c(=O)c3ccc4ccccc4c3nc12`, the IC50 in data set [1] was 0.6 µM. On the same count and under the same terms, with `O=C(NCCN1CCCC(F)C1)c1cccn2c(=O)c3cc4ccccc4cc3nc12` (stereo not drawn) the figure was above 10 µM. `O=C(NCCN1CCCC1)c1cccn2c(=O)c3ccc4ccccc4c3nc12`: the inhibition entry in the data set on A-375 [3] and with A-375 [4] was “inactive” each time. For the same compound, the IC50 in the data set on A-375 [5] is 0.038 µM; in data set [1] it was 0.21 µM. In addition, the half-life was 1.22 h in data set [6] and 7.52 h in data set [8]. The results for the Cmax in [7] and in data set [11] were 13.9 ng/mL and 83 ng/mL, respectively. In addition, the AUC(0-inf) turned out to be 122 ng·h/mL in data set [9], 518 ng·h/mL in data set [13] and 30.8 ng·h/mL in [17]. The clearance in data set [10] was 508 mL/min/kg. Besides, the Vd in data set [12] is 33.2 L/kg. The microsomal CLint at 1 µM in data set [14] turned out to be 132 µL/min/mg. The bioavailability in data set [15] worked out at 13%. For the same compound, in data set [16], the inhibition entry was “Active”. Take `O=C(NCCN1CC[C@@H](F)C1)c1cccn2c(=O)c3ccc4ccccc4c3nc12`: the half-maximal inhibitory concentration (IC50) was 2.1 µM on Cytochrome P450 1A2, 8.26 µM in data set [2] and 1.9 µM in [1]. As for `O=C(NCCN1CCCC1)c1cccn2c(=O)c3cc4c(cc3nc12)OCO4`, in data set [1], the IC50 came to 0.54 µM. As for `COc1cc2nc3c(C(=O)NCCN4CCCC4)cccn3c(=O)c2cc1OC`, the IC50 in data set [1] is 6.86 µM. As for `CN1CCOCC1CNC(=O)c1cccn2c(=O)c3cc4ccccc4cc3nc12` (stereo not drawn), the IC50 in data set [1] came out at 1 µM. For the compound `O=C(NCCN1CCC(F)(F)CC1)c1cccn2c(=O)c3cc4ccccc4cc3nc12`, the IC50 in [1] was above 10 µM.

For the compound `O=C(NCCN1CCSCC1)c1cccn2c(=O)c3cc4ccccc4cc3nc12`, in data set [1], the IC50 came out at 10 µM.

As to `CCN1CCCCC1CNC(=O)c1cccn2c(=O)c3cc4ccccc4cc3nc12` (stereo not drawn), the IC50 in [1] amounted to 0.99 µM. Same read-out and setting: then `O=C(NCCN1CCC(F)C1)c1cccn2c(=O)c3cc4ccccc4cc3nc12` (stereo not drawn), with 5.75 µM; and `O=C(NCCN1CCS(=O)(=O)CC1)c1cccn2c(=O)c3cc4ccccc4cc3nc12`, with above 10 µM. In the case of `CN1CCC(NC(=O)c2cccn3c(=O)c4ccc5ccccc5c4nc23)CC1`, the IC50 is above 10 µM at Cytochrome P450 1A2, 7.39 µM in [2] and above 10 µM in [1]. `O=C(NCCN1CCCC1)c1cccn2c1nc1cc3ccccc3nc12`: the IC50 in [1] worked out at 6 µM. Same read-out and setting: then `O=C(NCCN1CCCC1)c1cccn2c(=O)c3c(ccc4ccccc43)nc12`, with above 10 µM; and `O=C(NCCN1CCCC1)c1cccn2c1nc1cc3ccccc3cc12`, with 1.7 µM; and `N#CC1CCN(CCNC(=O)c2cccn3c(=O)c4cc5ccccc5cc4nc23)CC1`, with 0.74 µM. For `CNCCNC(=O)c1cccn2c(=O)c3ccc4ccccc4c3nc12`, the figures for the IC50 (at Cytochrome P450 1A2; in data set [2]; in data set [1]) were 0.3 µM, above 10 µM and 0.47 µM, respectively. With `O=C(NCC1CCCN1)c1cccn2c(=O)c3cc4ccccc4cc3nc12` (stereo not drawn), the IC50 in [1] was 0.78 µM. On the same count and under the same terms, then `O=C(NCCN1CCCC(F)(F)C1)c1cccn2c(=O)c3cc4ccccc4cc3nc12`, with above 10 µM; and `O=C(NCCN1CCC(O)(O)CC1)c1cccn2c(=O)c3cc4ccccc4cc3nc12`, with 0.6 µM.
